These results are taken from PubChem BioAssay (NCI).

Among the test systems are NCI-H460 lung; UO-31 renal; RXF 393 renal; OVCAR-8 ovarian; SK-MEL-5 melanoma; DU-145 prostate; NCI-H522 lung; UACC-257 melanoma; NCI-H23 lung; KM12 colon.
Experiment in all cases: growth of human tumour cells (NCI), 48 h

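Cells were grown in 96-well plates and exposed to each compound for 48 hours at five concentrations; endpoints were interpolated linearly between bracketing concentrations, or set to the highest concentration if not reached. The concentration for 50% growth inhibition is given as GI50. TGI denotes the concentration required for complete inhibition of growth.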 A value given as a limit tells only on which side of the number the result lay.

Turning to `COc1cccc(CC(C)=C(c2ccc(OCCCN(C)C)cc2)c2ccc(OCCCN(C)C)cc2)c1`, the GI50 is 0.484 µM in the assay with NCI-H460 lung; 0.424 µM in the assay with UO-31 renal; 0.597 µM in the assay on RXF 393 renal; 0.645 µM with OVCAR-8 ovarian; 0.57 µM with SK-MEL-5 melanoma; 0.694 µM with DU-145 prostate. Moreover, the GI50 with NCI-H522 lung was 0.452 µM; in the assay with UACC-257 melanoma, 0.498 µM; with NCI-H23 lung it was 2.87 µM; in the assay on KM12 colon, 0.628 µM. In addition, the TGI with NCI-H460 lung worked out at 0.94 µM; with UO-31 renal, 0.795 µM; in the assay on RXF 393 renal, 2.57 µM; in the assay on OVCAR-8 ovarian, 1.8 µM; in the assay with SK-MEL-5 melanoma, 1.31 µM; in the assay with DU-145 prostate, 1.82 µM. Moreover, the TGI with NCI-H522 lung was found to be 1 µM; in the assay with UACC-257 melanoma, 1.09 µM; in the assay with NCI-H23 lung, 6.31 µM; with KM12 colon, 1.54 µM.
Take `Cc1ccc(Sc2oc(-c3ccc(C)cc3)nc2[P+](c2ccccc2)(c2ccccc2)c2ccccc2)cc1`: the GI50 in the assay with NCI-H460 lung is 0.312 µM; in the assay with UO-31 renal, 0.24 µM; with RXF 393 renal, 0.316 µM; with OVCAR-8 ovarian, 0.345 µM; in the assay on SK-MEL-5 melanoma, 0.287 µM; in the assay with DU-145 prostate, 0.416 µM. Also, the GI50 in the assay with NCI-H522 lung was 0.148 µM; in the assay with UACC-257 melanoma, 0.303 µM; in the assay with NCI-H23 lung, 0.298 µM; in the assay on KM12 colon it was 0.338 µM. For the same molecule, the TGI in the assay with NCI-H460 lung turned out to be 1.12 µM; in the assay on UO-31 renal it was 0.935 µM; in the assay with RXF 393 renal it was 1.33 µM; in the assay on OVCAR-8 ovarian, 1.65 µM; with SK-MEL-5 melanoma it was 0.785 µM; in the assay on DU-145 prostate it was 1.48 µM. Further, the TGI with NCI-H522 lung was found to be 0.379 µM; in the assay with UACC-257 melanoma, 1.15 µM; in the assay with NCI-H23 lung, 1.02 µM; in the assay on KM12 colon, 1.3 µM.
In the case of `NC(=O)c1cccc(-c2cc(C(N)=O)ccc2Cl)c1`, the GI50 was 12.2 µM in the assay with NCI-H460 lung; 4.61 µM in the assay with UO-31 renal; 2.11 µM with RXF 393 renal; 4.32 µM with OVCAR-8 ovarian; 3.62 µM with SK-MEL-5 melanoma; 3.78 µM in the assay with DU-145 prostate. The GI50 with NCI-H522 lung was 2.39 µM; with UACC-257 melanoma, 25.9 µM; in the assay on NCI-H23 lung it was 9.21 µM; in the assay with KM12 colon, 1.88 µM. Also, the TGI with NCI-H460 lung was 54 µM; with UO-31 renal it was greater than 100 µM; with RXF 393 renal it was 5.26 µM; with OVCAR-8 ovarian, greater than 100 µM; with SK-MEL-5 melanoma, 14.8 µM; in the assay on DU-145 prostate, greater than 100 µM. Also, the TGI is 23.2 µM in the assay on NCI-H522 lung, greater than 100 µM in the assay with UACC-257 melanoma, greater than 100 µM with NCI-H23 lung and greater than 100 µM with KM12 colon.
`CCOC(=O)C1=C(C)N2C(=NC3=C(CCC/C3=C\c3ccc(Cl)cc3)C2c2ccc(Cl)cc2)S1` (stereo not given): the GI50 in the assay on NCI-H460 lung was 4.04 µM; in the assay on UO-31 renal, 1.7 µM; with RXF 393 renal it was 1.88 µM; in the assay with OVCAR-8 ovarian it was 3.24 µM; in the assay with SK-MEL-5 melanoma, 2.93 µM; in the assay on DU-145 prostate it was 3.92 µM. Besides, the GI50 is 3.84 µM in the assay with NCI-H522 lung, 2.05 µM in the assay with UACC-257 melanoma, 2.03 µM with NCI-H23 lung and 1.93 µM in the assay with KM12 colon. Further, the TGI is 19.4 µM in the assay with NCI-H460 lung; 3.85 µM with UO-31 renal; 3.51 µM in the assay on RXF 393 renal; 31 µM in the assay on OVCAR-8 ovarian; 11.4 µM with SK-MEL-5 melanoma; 17.6 µM in the assay with DU-145 prostate. Moreover, the TGI in the assay on NCI-H522 lung was 17.8 µM; with UACC-257 melanoma it was 5.18 µM; in the assay on NCI-H23 lung it was 5.26 µM; in the assay with KM12 colon, 3.68 µM.
Consider `C=CCCCOC1[C@H](OCc2ccccc2)C(OCc2ccccc2)C(OC)O[C@@H]1CNC(=O)c1cccc(I)c1` (stereo not given in full), for which the GI50 with NCI-H460 lung is 2.91 µM; in the assay on UO-31 renal, 9.51 µM; in the assay with RXF 393 renal it was 3.91 µM; in the assay on OVCAR-8 ovarian, 26 µM; in the assay on SK-MEL-5 melanoma, 2.2 µM; with DU-145 prostate, 8.52 µM. Also, the GI50 in the assay on NCI-H522 lung was 33 µM; in the assay on UACC-257 melanoma, 8.82 µM; with NCI-H23 lung, 33.6 µM; in the assay with KM12 colon, 6.49 µM. Moreover, the TGI was 8.64 µM in the assay with NCI-H460 lung; greater than 100 µM with UO-31 renal; greater than 100 µM in the assay on RXF 393 renal; greater than 100 µM with OVCAR-8 ovarian; 16.2 µM in the assay with SK-MEL-5 melanoma; greater than 100 µM with DU-145 prostate. The TGI with NCI-H522 lung, in the assay on UACC-257 melanoma, in the assay with NCI-H23 lung and in the assay with KM12 colon was greater than 100 µM each time.
Turning to `O=C1CSC(c2ccccc2O)N1c1nnc(Cn2ccnc2)o1` (stereo not given), the GI50 with NCI-H460 lung is 4.76 µM; in the assay with UO-31 renal it was 4.35 µM; in the assay with RXF 393 renal it was 22.7 µM; with OVCAR-8 ovarian, 17.8 µM; with SK-MEL-5 melanoma, 7.4 µM; with DU-145 prostate, 17.5 µM. The GI50 is 12 µM in the assay on NCI-H522 lung, 16 µM in the assay on UACC-257 melanoma, 14.9 µM in the assay on NCI-H23 lung and 5.16 µM in the assay with KM12 colon. The TGI is greater than 100 µM in the assay with NCI-H460 lung; greater than 100 µM in the assay with UO-31 renal; greater than 100 µM in the assay with RXF 393 renal; greater than 100 µM with OVCAR-8 ovarian; 20.2 µM in the assay with SK-MEL-5 melanoma; 56.6 µM with DU-145 prostate. Further, the TGI in the assay with NCI-H522 lung is 33 µM; in the assay with UACC-257 melanoma, 40.6 µM; in the assay on NCI-H23 lung, 65 µM; in the assay on KM12 colon, greater than 100 µM.
Turning to `Oc1c(Cl)cc(Cl)c2cccnc12`, the GI50 with NCI-H460 lung is 1.87 µM; with UO-31 renal it was 2.5 µM; with RXF 393 renal, 2.25 µM; in the assay on OVCAR-8 ovarian, 2.75 µM; in the assay with SK-MEL-5 melanoma, 1.76 µM; in the assay on DU-145 prostate it was 4.51 µM. Besides, the GI50 in the assay on NCI-H522 lung is 1.83 µM; in the assay with UACC-257 melanoma it was 2.26 µM; in the assay on NCI-H23 lung it was 4.2 µM; in the assay on KM12 colon, 4.58 µM. For the same molecule, the TGI came out at 6.9 µM in the assay on NCI-H460 lung; 9.31 µM in the assay with UO-31 renal; 7.91 µM with RXF 393 renal; 54.6 µM with OVCAR-8 ovarian; 3.59 µM in the assay with SK-MEL-5 melanoma; 45.7 µM with DU-145 prostate. For the same molecule, the TGI worked out at 4.85 µM in the assay on NCI-H522 lung, 7.24 µM with UACC-257 melanoma, 42.5 µM with NCI-H23 lung and 16.7 µM with KM12 colon.
